Source: patent publication EP0954520B1, “ISOFLAVONE DERIVATIVES, PROCESSES FOR THE PREPARATION THEREOF AND PHARMACEUTICAL COMPOSITIONS CONTAINING THEM” (CHIESI FARMACEUTICI S.p.A., priority 1997, dated 1998)

Legend:
[1] = system: immature rats; assay: Uterotrophic and antiuterotrophic actions in immature rat assay (uterine weight); format: in vivo; settings: for suppression of estradiol's activity (uterotrophic action): with 17b-estradiol
Procedure: The uterotrophic and antiuterotrophic actions of CHF 3316.01 were studied to determine the estrogenic and antiestrogenic activity of CHF 3316.01 in immature rat assay. All experiments were conducted using subcutaneous injection of the test compound as a solution in 20% Solutol HS 15. Each experiment was accompained by a vehicle control group and a positive control group (17b-estradiol 2 mg/kg by subcutaneous injection). The test protocol was based on the immature rat assay protocol described by […]. and […] Endocr (1978), 99, 445-464. Animals were dosed on 3 successive days with the appropriate material. Animals were killed by an overdose of CO2 24 hr after the final dose. The body of the uterus was cut just above its junction with the cervix and at the junction of the uterine horns with the ovaries. The uterus was then weighed. Generally, 6 animals per exposure group were employed. The daily dose levels used for CHF 3316.01 were 10 and 20 mg/kg.

[2] = target: T1, estrogen receptors (Bos taurus, UniProt P49884); assay: biochemical
T1 sequence (P49884 1-596): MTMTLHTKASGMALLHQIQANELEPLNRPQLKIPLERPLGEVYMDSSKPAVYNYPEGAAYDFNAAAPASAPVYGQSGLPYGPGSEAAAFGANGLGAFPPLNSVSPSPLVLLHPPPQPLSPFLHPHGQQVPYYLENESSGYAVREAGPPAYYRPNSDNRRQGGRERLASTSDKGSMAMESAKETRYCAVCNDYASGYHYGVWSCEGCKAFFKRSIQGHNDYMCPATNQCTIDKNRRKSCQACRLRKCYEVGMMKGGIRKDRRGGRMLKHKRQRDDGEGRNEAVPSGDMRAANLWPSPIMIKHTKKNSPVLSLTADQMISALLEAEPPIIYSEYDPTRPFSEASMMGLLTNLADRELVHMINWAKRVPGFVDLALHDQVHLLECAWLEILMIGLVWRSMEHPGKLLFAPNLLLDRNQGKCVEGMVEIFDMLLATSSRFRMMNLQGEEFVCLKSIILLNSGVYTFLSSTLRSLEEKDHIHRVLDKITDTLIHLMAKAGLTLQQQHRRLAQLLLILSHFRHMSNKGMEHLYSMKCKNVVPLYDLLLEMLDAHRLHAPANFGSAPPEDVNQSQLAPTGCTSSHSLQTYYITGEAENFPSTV
Procedure: To determine the estrogen receptor binding affinity of CHF 3316.01 calf uterus, prepared as previously described in McGuire W. L. et al. Eds. Estrogen receptors in human breast cancer, Raven Press N. Y., (1975), was used as source of estrogen receptors.
Displacement curves were generated using final concentrations of 1.5 nM 17b-[3H]estradiol as radioligand and (1)/(2) [formula] -log unit increments of CHF 3316.01, ranging from 0.1 to 10,000 nM.
Incubation time was 24 hr at 4°C, after which dextran-treated charcoal was added. The suspension was then centrifuged, and radioactivity in the supernatant fluid was determined by scintillation counting. Percent binding was determined in duplicate at each concentration of displacing ligand.
IC50 value for 50 % inhibition of 17b-[3H]estradiol binding and Ki value were determined by non linear regression analysis of log concentration-displacement curves.

[3] = system: fetal rat long bones (radius and ulna); assay: Bone resorption in fetal rat long bone culture (bPTH 1-34 induced 45Ca release); settings: for inhibition of 45Ca release induced by bPTH: bPTH 1-34 5 nM, 5 days culture
[4] = system: fetal rat long bones (radius and ulna); assay: as above; format: cell-based; settings: 5 nM, day 5; n=7
Procedure: Pregnant Sprague-Dawley rats were injected subcutaneously with 0.2 mCi 45Ca (CaCl2, >10 Ci/g) on the 18th day of gestation (day of vaginal plug discovery equals day 0 of pregnancy).
To remove freely exchangeable 45Ca, bones were pre-incubated for 24 hours in 48-well polystyrene culture dishes (Costar, Cambridge, MA) containing 500 µl of a culture medium (BGJ-B medium) in an air humidified incubator at 37°C in 5% C02.
The medium was changed after 2 days.

## C[C@]12CC[C@@H]3c4ccc(O)cc4CC[C@H]3[C@@H]1CC[C@@H]2O [17b-estradiol, reference compound]
[1]; 2 mg/kg subcutaneous, three successive daily injections, immature rats
  increase of uterine weight above vehicle control group: 93%

## Cl.O=C(c1ccc(OCCN2CCCCC2)cc1)c1oc2cc(O)ccc2c(=O)c1-c1ccc(O)cc1 [CHF 3316.01, 4',7-dihydroxy-2-(4-(2-(N-piperidinyl)ethyloxy)benzoyl)isoflavone hydrochloride]
[2]
  Ki: 0.0039 ± 0.0003 µM
[1]; 10 mg/Kg per day subcutaneous, 3 days
  suppression of estradiol's activity (uterotrophic action): 63%
[1]; 20 mg/Kg per day subcutaneous, 3 days
  suppression of estradiol's activity (uterotrophic action): 78%
[1]; 10 and 20 mg/kg per day subcutaneous, 3 days
  uterotrophic activity: devoid of uterotrophic activity
[3]; 3 mM (so in the source)
  inhibition of 45Ca release induced by bPTH: 24.81±2.14%
[3]; 10 mM (so in the source)
  inhibition of 45Ca release induced by bPTH: 37.86%
[3]; 30 mM (so in the source)
  inhibition of 45Ca release induced by bPTH: full inhibition
[3]; Rattus norvegicus, read-out: apparent IC50 value
  IC50: 10 µM
[3]; versus metabolite 3 of ipriflavone M3
  potency relative to M3 (more potent): ~2 fold

## O=P(O)(O)C(Cl)(Cl)P(=O)(O)O [Disodium clodronate, dichloromethylene bisphosphonate, reference compound]
[3]; Rattus norvegicus, 120 h, read-out: inhibition of resorption
  inhibition at 5 µM: 90 ± 5%

## O=c1c(-c2ccc(O)cc2)coc2cc(O)ccc12 [Example M2, 4',7-dihydroxyisoflavone, reference compound]
[2]
  Ki: 0.127 µM

## bPTH 1-34: bovine parathyroid hormone fragment 1-34, used to induce resorption (AVSEIQFMHNLGKHLSSMERVEWLRKKLQDVHNF; Parathyroid hormone; UniProt P01268 32-65, looked up, fragment)
[4]
  45Ca release, treated over control (T/C) ratio: 4.27±0.33
